Data reported in patent US4584404A, “Substituted phenoxyphenylproply dimethylamines” (priority 1983, dated 1986).
Entries after “also recorded” stand apart in the source; their conditions may differ.

Columns and labels:
[1] = tested on: NE uptake and 5HT uptake; assay: NE/5HT uptake inhibition selectivity; type: biochemical, rat; conditions: for NE/5HT IC50 uptake ratio: ratio NE/5HT
Source text: (§1) This blockade is shown both in vitro with radioactive labelled compounds to determine the amount of monoamine uptake by synaptosomes from rat brain, and in vivo by a variety of methods. Among the physiologically active monoamines whose uptake is blocked by the compounds of this invention are included particularly serotonin (5HT) and norepinephrine(3,4-dihydroxyphenylethanolamine). […] Tables 1 and 2 which follow set forth the results of some of the in vitro determinations of the blockade of monoamine uptake by the compounds of this invention. In the tables, column 1 gives the R substituent on the 3-phenylpropylamine and columns 2-4, the concentration in micrograms per ml. that blocks the uptake by 50 percent of the monoamines--norepinephrine, serotonin, and dopamine. At the head of each column is given the concentration of the particular monoamine used in the experiment.

[2] = tested on: norepinephrine uptake (synaptosomes from rat brain); assay: blockade of norepinephrine uptake by synaptosomes from rat brain, in vitro, radioactive labelled compounds; type: biochemical; conditions: norepinephrine 0.48 μM
Source text: as §1

[3] = tested on: dopamine uptake (synaptosomes from rat brain); assay: blockade of dopamine uptake by synaptosomes from rat brain, in vitro, radioactive labelled compounds; type: biochemical; conditions: dopamine 0.2 μM
Source text: as §1

[4] = tested on: serotonin uptake (synaptosomes from rat brain); assay: blockade of serotonin (5HT) uptake by synaptosomes from rat brain, in vitro, radioactive labelled compounds; type: biochemical; conditions: serotonin 0.1 μM
Source text: as §1

[5] = humans; cited from earlier work

SMILES | uptake inhibition selectivity in words ([1]; 5HT vs NE, listed as IV) | NE/5HT IC50 uptake ratio [1] | Concentration that blocks 50% of norepinephrine uptake [2] | Concentration that blocks 50% of dopamine uptake [3] [µg/mL] | Concentration that blocks 50% of serotonin uptake [4] | antidepressant effect [5]
Cc1ccccc1OC(CCN(C)C)c1ccccc1 (stereo not drawn) [o-tolyloxy, 3-o-tolyloxy-3-phenylpropyl dimethylamine] | selective NE uptake inhibitors; also recorded: blocks NE preferentially | .5 | .35 µg/mL | 0.8 | 2 µg/mL | 
CN(C)CCC(Oc1ccc(C(F)(F)F)cc1)c1ccccc1 (stereo not drawn) [p-trifluoromethylphenyloxy, N,N-dimethyl-3-(p-trifluoromethylphenoxy)-3-phenylpropylamine] |  | 7.19 | 70 µg/mL | > 100 | .16 µg/mL | 
CN(C)CCC(Oc1ccc(Cl)cc1)c1ccccc1 (stereo not drawn) [p-chlorophenoxy, N,N-dimethyl 3-phenyl-3-(p-chlorophenoxy)-propylamine] |  | 9.88 | .3 µg/mL | 1.3 | .03 µg/mL | 
CNCCC(Oc1ccc(C(F)(F)F)cc1)c1ccccc1 (stereo not drawn) [fluoxetine, 3-phenyl-3-(p-trifluoromethyl)phenoxypropyl methylamine] |  |  |  |  |  | highly potent antidepressant in humans
Cc1ccc(OC(CCN(C)C)c2ccccc2)cc1 (stereo not drawn) [p-tolyloxy, N,N-dimethyl 3-(p-tolyloxy)-3-phenylpropylamine] |  | 5.83 | .015 µg/mL | > 100 | .4 µg/mL | 
